Laboratory results reported in patent US20250127868A1, “HYPERACTIVATING LIPID NANOPARTICLES” (Corner Therapeutics, Inc., priority 2022, published 2025).

How the values were obtained:
Format in all cases: cell-based
canine PBMCs = experiment: IL-1β secretion by canine PBMCs (ELISA); conditions: two days post-activation, R848 1 μg/mL, 22:0 LYSO PC 82.5 μM, LPS 1 μg/mL, Alum 30 μg/mL
human PBMCs [1] = experiment: IFNγ secretion by human PBMCs (ELISA); conditions: two days post-activation
Description: (§1) Isolation of PBMCs from Whole Blood. PBMCs were isolated from whole blood using density gradient centrifugation with Ficoll-Paque PLUS (Cytivia). Whole blood was diluted 1:1 with PBS, layered on top of Ficoll-Paque PLUS and centrifuged at 1000×g for 30 minutes at room temperature. PBMCs were collected, washed twice in PBS, and incubated with Ack lysis buffer (Lonza) to remove any remaining red blood cells.
(§2) Cell Culture and Stimulation. Immediately following isolation, PBMCs were plated in RPMI medium containing 10% FBS, 50 units/mL penicillin, […] streptomycin, 2 mM L-glutamine, 1 mM sodium pyruvate, and […] beta-mercaptoethanol (R10 media). […]
(§3) Endpoint Analyses. […] Half of the media volume in the wells was collected for cytokine quantification by Enzyme-Linked Immunosorbent Assay (ELISA) or Lumit™ Bioluminescent assay, while the remaining media and cells were used to quantify cell viability by assessing metabolic activity.
(§4) Quantification of Cytokine Secretion. IL-1β secretion from human PBMCs was assessed using one of the following kits: ELISA MAX Deluxe Set Human IL-1β kit (Biolegend), Invitrogen Human IL-1β kit, or the Lumit™ Human IL-1β Immunoassay (Promega). IFNγ secretion from human PBMCs was assessed using the ELISA MAX Deluxe Set Human IFNγ (Biolegend) and TNFα secretion from human PBMCs was assessed using the Human TNFα Uncoated ELISA kit (Invitrogen). […]

human PBMCs [2] = experiment: IL-1β secretion by human PBMCs (ELISA or Lumit); conditions: two days post-activation, R848 1 μg/mL, 22:0 LYSO PC 82.5 μM
Description: as §1, §2, §3, §4

Compound: Nc1nc2c(ncn2[C@@H]2O[C@@H]3COP(=O)(O)O[C@H]4[C@@H](O)[C@H](n5cnc6c(N)ncnc65)O[C@@H]4COP(=O)(O)O[C@@H]2[C@@H]3O)c(=O)[nH]1 [2′3′cGAMP, reference compound]
- IL-1β secretion (canine PBMCs): neither GM-CSF nor 2′3′cGAMP induced significant IL-1β secretion
- IFNγ secretion, fold change per donor relative to R848 alone (human PBMCs [1]): neither GM-CSF nor 2′3′cGAMP elicited a substantial fold change in IFNγ secretion

Compound: GM-CSF: human GM-CSF (Peprotech), added at 10 ng/ml
- IL-1β secretion (canine PBMCs): neither GM-CSF nor 2′3′cGAMP induced significant IL-1β secretion
- IFNγ secretion, fold change per donor relative to R848 alone (human PBMCs [1]): neither GM-CSF nor 2′3′cGAMP elicited a substantial fold change in IFNγ secretion
- IL-1β secretion (human PBMCs [2]): did not induce levels of IL-1β secretion from human PBMCs significantly above background levels
